Molecular target: T1, Urokinase-type plasminogen activator [179-424,C299A,N323Q] (Human, UniProt P00749, C299A/N323Q)
T1 construct: 179-424
Experiment: Photometric_Method1

Compound	Ki [nM]
Nc1cc2ccccc2cn1	> 30000
N=C(N)c1ccc2ccccc2c1 [Naphthalene-2-carboxamidine]	5910
Nc1cnc2ccccc2n1 [uPa_1]	> 50000
COc1cc2ccc(C(=N)N)cc2c(OC)c1OC [uPa_2]	8030
CC(C)Oc1ccc2cc(C(=N)N)ccc2c1 [uPa_5]	7280
COc1ccc2ccc(C(=N)N)cc2c1-c1cnn(C(C)C)c1 [uPa_11]	4500
N=C(N)c1ccc2cc(NS(=O)(=O)c3ccccc3)ccc2c1 [uPa_14]	8700
N#CC(CCOc1cccc2ccc(N)nc12)(c1ccccc1)c1ccccc1 [uPa_16]	> 40000
COC(=O)Nc1cc(C(=O)Nc2ccc(CN)cc2)cc2ccc(C(=N)N)cc12 [uPa_17]	0.892
CS(=O)(=O)n1cc(-c2cc(C(=O)Nc3ccccc3)cc3ccc(C(=N)N)cc23)cn1 [uPa_20]	769
N=C(N)c1ccc2cc(C(=O)Nc3ccccc3)cc(-c3ncccn3)c2c1 [uPa_21]	7850
N=C(N)NC(=O)c1nc(Cl)c(NCc2cc(Cl)cc(Cl)c2)nc1N [uPa_22]	3570
Nc1ccc2nc(N)ccc2c1 [uPa_23]	> 104000
COC(=O)Nc1ccc2nc(N)ccc2c1 [uPa_24]	> 50000
N=C(N)c1ccc2cc(C#Cc3cccc(OC4CCCC4)c3)ccc2c1 [uPa_25]	665
CC(C)C1=NCCc2ccc(NC(=O)c3cc(Br)c4cc(C(=N)N)ccc4c3)cc21 [uPa_26]	15.7
COC(=O)Nc1ccc2nc(C(=N)N)ccc2c1 [uPa_27]	> 50000
COc1cc(NC(=O)c2ccc3cc(C(=N)N)ccc3c2)cc(OC(C)C)c1 [uPa_28]	33.3

Compound	Ki [nM]
N=C(N)c1ccc2cc(C(=O)Nc3ccc4c(c3)C(c3ccccc3)=NCC4)ccc2c1 [uPa_29]	290
C=CCNC(=O)Nc1cccc2ccc(N)nc12 [uPa_30]	> 10000
N=C(N)c1ccc2cc(C(=O)Nc3ccc4c(c3)C(C3CCCCC3)=NCC4)ccc2c1 [uPa_31]	66.3
N=C(N)c1ccc2cc(/C=C/CCc3cccnc3)cc(Br)c2c1 [uPa_32]	3080
C#CCN(C)C(=O)c1ccc2ccc(N)nc2c1 [uPa_33]	> 100000
CC(C)CN(CC(C)C)C(=O)c1ccc2ccc(N)nc2c1 [uPa_34]	> 100000
CN(CC#N)C(=O)c1ccc2ccc(N)nc2c1 [uPa_35]	> 100000
COC(=O)Nc1cc(C(=O)Nc2ccccc2)cc2ccc(C(=N)N)cc12 [uPa_36]	18
CS(=O)(=O)Nc1cc(CCc2ccccc2)cc2ccc(C(=N)N)cc12 [uPa_37]	1490
CCOc1cc(OCC)c(OCC)cc1/C=C/c1cc(Br)c2cc(C(=N)N)ccc2c1 [uPa_38]	777
COC/C=C/c1cc(C2CC2c2ccc3c(c2)C(C(C)C)N(C)CC3)cc2ccc(C(=N)N)cc12 (stereo not given) [uPa_39]	21
CN1CCc2ccc(/C=C/c3ccc4cc(C(=N)N)ccc4c3)cc2C1C1CCCCC1 (stereo not given) [uPa_40]	223
CN1CCc2ccc(C3CC3c3ccc4cc(C(=N)N)ccc4c3)cc2C1C1CCC1 (stereo not given) [uPa_41]	42
COc1cc(C2CC2c2ccc3c(c2)C(C(C)C)N(C)CC3)cc2ccc(C(=N)N)cc12 (stereo not given) [uPa_42]	94
CC(C)C1c2cc(C3CC3c3cc(/C=C/C4CC4)c4cc(C(=N)N)ccc4c3)ccc2CCN1C (stereo not given) [uPa_43]	9
CN1CCc2ccc(C3CC3c3ccc4cc(C(=N)N)ccc4c3)cc2C1c1cccnc1 (stereo not given) [uPa_44]	1250
N=C(N)NC(=O)c1ccc(Cl)c(S(N)(=O)=O)c1 [uPa_45]	> 100000
